Results taken from patent publication US11498921B1, “Pyrimidine or pyridine compounds, preparation method therefor and pharmaceutical uses thereof” (INVENTISBIO CO., LTD., priority 2014, dated 2022).
Where a name gives a salt, the structure may show the parent alone.

Assays:
Assay type in all cases: cell-based
[1] = system: LoVo cells (wild-type EGFR human colon adenocarcinoma); assay: Cell growth inhibition (Cell Titer-Glo), LoVo; settings: 72 hours drug treatment, 3 nM to 10 μM
Protocol: (§1) Experiment of Cell Growth Inhibition
(§2) The LoVo cell line is a wild-type EGFR human colon adenocarcinoma cell, and is grown in F-12K medium (GIBCO) containing 10% FBS. NCI-H2073 cell line is a wild-type EGFR human non-small cell lung cancer cell and grown in ACL-4 medium containing 10% FBS. The growth rate of NCI-H1975, LoVo and NCI-H2073 cells was detected by Cell Titer-Glo luminescence activity assay (Promega #G7572).
(§3) Briefly, trypsin was used for digesting cells in the logarithmic growth phase. 96-well plates were seeded with 50,000 Lovo or NCI-H2073 cells, 2500-3000 NCI-H1975 cells per well and provided with blank control wells containing only nutrient solution without inoculated cell, and the plates were incubated in a humidified incubator with 5% CO2 at 37° C. […] The concentration of test drug in NCI-H1975 cells was from 0.03 nM to 100 nM, and that in LoVo and NCI-H2073 cells was from 3 nM to 10 μM. The cell culture medium containing the different compounds was then added to a 96-well cell plate in which one cell control well comprising cell culture medium only containing DMSO was provided. After a drug treatment for 72 hours, the cell plates were removed from the incubator and allowed to stand at room temperature for 30 minutes. Next, Cell Titer-Glo reagent was added to the wells and the 96-well cell plate was shaken at room temperature for 10 minutes to induce cell lysis. The 96-well cell plate was placed on the bench for 2 minutes to stabilize the luminescence signal. Finally, the 96-well cell plate was placed in an EnVision Multi-labeled Microplate Reader (PerkinElmer), and the signal was read with an integral time of 0.5 seconds.
(§4) Formula: Percentage of cell growth inhibition %=(maximum signal−compound signal)/(maximum signal−minimum signal)*100%
(§5) The maximal signal was obtained from the cell control well which were treated with the DMSO solution having no any compound;
(§6) The compound signal was obtained from the drug-treated cell wells to which the compound was added;
(§7) The minimum signal was obtained from a blank control well to which no cells and only nutrient solution was added.

[2] = system: NCI-H1975 cells (T790M and L858R EGFR mutations); assay: Cell growth inhibition (Cell Titer-Glo), NCI-H1975; settings: Homo sapiens, 72 hours drug treatment, 0.03 nM to 100 nM
Protocol: as §1, §2, §3, §4, §5, §6, §7

[3] = system: NCI-H2073 cells (wild-type EGFR human non-small cell lung cancer); assay: Cell growth inhibition (Cell Titer-Glo), NCI-H2073; settings: 72 hours drug treatment, 3 nM to 10 μM
Protocol: as §1
as §2, with “The compounds that were preferentially targeted for EGFR targeting certain mutations and relatively weak in wild-type EGFR were identified by determining the growth of cells. The NCI-H1975 cell line is a human non-small cell lung cancer cell containing T790M and L858R EGFR mutations, and the cell is grown in RPMI-1640 medium (GIBCO) containing 10% fetal bovine serum (FBS). The LoVo” for “The LoVo”
Briefly, trypsin was used for digesting cells in the logarithmic growth phase. 96-well plates were seeded with 50,000 Lovo or NCI-H2073 cells, 2500-3000 NCI-H1975 cells per well and provided with blank control wells containing only nutrient solution without inoculated cell, and the plates were incubated in a humidified incubator with 5% CO2 at 37° C. After 24 hours, the DMSO solution of the different compounds was diluted with a cell culture medium at 3.16 times per time to eight different concentrations from high to low levels. The concentration of test drug in NCI-H1975 cells was from 0.03 nM to 100 nM, and that in LoVo and NCI-H2073 cells was from 3 nM to 10 μM. The cell culture medium containing the different compounds was then added to a 96-well cell plate in which one cell control well comprising cell culture medium only containing DMSO was provided. After a drug treatment for 72 hours, the cell plates were removed from the incubator and allowed to stand at room temperature for 30 minutes. Next, Cell Titer-Glo reagent was added to the wells and the 96-well cell plate was shaken at room temperature for 10 minutes to induce cell lysis. The 96-well cell plate was placed on the bench for 2 minutes to stabilize the luminescence signal. Finally, the 96-well cell plate was placed in an EnVision Multi-labeled Microplate Reader (PerkinElmer), and the signal was read with an integral time of 0.5 seconds.
as §4, §5, §6, §7

Structure (SMILES) | IC50 [1] [nM] | IC50 [2] [nM] | IC50 [3] [nM]
C=CC(=O)Nc1cc(Nc2nccc(-c3cn(C)c4ccccc34)n2)c(OC)cc1N(C)CCOC [6. (HCl)n] | 4980 | > 100 | –
C=CC(=O)Nc1cc(Nc2nccc(-c3cn(C)c4ccccc34)n2)c(OC)cc1N(C)CCS(C)(=O)=O [10. (MsOH)3] | 3020 | > 100 | –
C=CC(=O)Nc1cc(Nc2nccc(-c3cn(C)c4ccccc34)n2)c(OC)cc1N(C)CCN1CCC1 [11. (MsOH)2] | 1270 | 35.4 | –
C=CC(=O)Nc1cc(Nc2nccc(-c3cn(C)c4ccccc34)n2)c(OC)cc1N(C)CCN1CCCC1 [12. (MsOH)2] | 1720 | 35.2 | –
C=CC(=O)Nc1cc(Nc2nccc(-c3cn(C)c4ccccc34)n2)c(OC)cc1N1CCC(N(C)C)CC1 [13. (MsOH)2] | 444 | > 100 | –
C=CC(=O)Nc1cc(Nc2nccc(-c3cn(C)c4ccccc34)n2)c(OC)cc1N1CCC(N2CCC2)CC1 [14. (MsOH)2] | 481 | > 100 | –
C=CC(=O)Nc1cc(Nc2nccc(-c3cn(C)c4ccccc34)n2)c(OC)cc1N1CCC(N2CCCC2)CC1 [15. (MsOH)2] | 333 | > 100 | –
C=CC(=O)Nc1cc(Nc2nccc(-c3cn(C)c4ccccc34)n2)c(OC)cc1N1CCC(OC)C1 (stereo not shown) [17. (MsOH)2] | > 10000 | > 100 | –
C=CC(=O)Nc1cc(Nc2nccc(-c3cn(C)c4ccccc34)n2)c(OC)cc1N1CCC(N2CCC2)C1 (stereo not shown) [18. (MsOH)3] | 520 | 43.6 | –
C=CC(=O)Nc1cc(Nc2nccc(-c3cn(C)c4ccccc34)n2)c(OC)cc1N1CCC(N2CCCC2)C1 (stereo not shown) [19. MsOH] | 955 | 48.5 | –
C=CC(=O)Nc1cc(Nc2nccc(-c3cn(C)c4ccccc34)n2)c(OC)cc1N1CCC(N2CCN(C)CC2)C1 (stereo not shown) [20. (MsOH)4] | 954 | > 100 | –
C=CC(=O)Nc1cc(Nc2nccc(-c3cn(C)c4ccccc34)n2)c(OC)cc1N1CC(OC)C1 [21. (MsOH)2] | > 10000 | > 100 | –
C=CC(=O)Nc1cc(Nc2nccc(-c3cn(C)c4ccccc34)n2)c(OC)cc1N1CC(N2CCN(C)CC2)C1 [24. (MsOH)3] | 2580 | > 100 | –
C=CC(=O)Nc1cc(Nc2nccc(-c3cn(C)c4ccccc34)n2)c(OC)cc1N1CC(N2CCOCC2)C1 [25. (MsOH)2] | 5250 | > 100 | –
C=CC(=O)Nc1cc(Nc2nccc(-c3cn(C)c4ccccc34)n2)c(OC)cc1N1CCC(N2CCOCC2)C1 (stereo not shown) [26. (MsOH)2] | 5130 | > 100 | –
C=CC(=O)Nc1cc(Nc2nccc(-c3cn(C)c4ccccc34)n2)c(OC)cc1N1CCC(N2CCOCC2)CC1 [27. (MsOH)3] | 1810 | 84 | –
C=CC(=O)Nc1cc(Nc2nccc(-c3cn(C)c4ccccc34)n2)c(OC)cc1OCCN1CCOCC1 [30. (MsOH)2] | 2550 | > 100 | –
C=CC(=O)Nc1cc(Nc2nccc(-c3cn(C)c4ccccc34)n2)c(OC)cc1OCCN1CCN(C)CC1 [31. (MsOH)3] | 846 | > 100 | –
C=CC(=O)Nc1cc(Nc2nccc(-c3cn(C)c4ccccc34)n2)c(OC)cc1OCCOC [32. (MsOH)] | > 10000 | > 100 | –
C=CC(=O)Nc1cc(Nc2nccc(-c3cn(C)c4ccccc34)n2)c(OC)cc1N(CCOC)CCOC [33. HCl] | 1430 | > 100 | –
C=CC(=O)Nc1cc(Nc2nccc(-c3cn(C)c4ccccc34)n2)c(OC)cc1N1CCCC(N(C)C)C1 (stereo not shown) [34. (MsOH)3] | 446 | 39.9 | –

Structure (SMILES) | IC50 [1] [nM] | IC50 [2] [nM] | IC50 [3] [nM]
C=CC(=O)Nc1cc(Nc2nccc(N3CCCc4ccccc43)n2)c(OC)cc1N(C)CCN(C)C [35. (MsOH)3] | 912 | 48.4 | –
C=CC(=O)Nc1cc(Nc2cc(-c3cn(C)c4ccccc34)ccn2)c(OC)cc1N(C)CCN(C)C [43. (HCl)n] | 2170 | 18.1 | –
C=CS(=O)(=O)Nc1cc(Nc2nccc(-c3cn(C)c4ccccc34)n2)c(OC)cc1N(C)CCN(C)C [45. (HCl)n] | 1090 | > 100 | –
C=CS(=O)(=O)Nc1cc(Nc2nccc(-c3cn(C)c4ccccc34)n2)c(OC)cc1N(C)CCN1CCCC1 [46. (MsOH)2] | 1170 | 155 | –
C=CC(=O)Nc1cc(Nc2nccc(-c3cn(C)c4ccccc34)n2)c(OC)cc1N(C)CCCN(C)C [47. (MsOH)2] | 1620 | 134 | –
C=CC(=O)Nc1cc(Nc2nccc(-c3cn(C)c4ccccc34)n2)c(OC)cc1N(C)CCN(C)CCOC [54. (HCl)n] | 738 | 38.2 | –
C=CC(=O)Nc1cc(Nc2nccc(-n3nc(C)c4ccccc43)n2)c(OC)cc1N(C)CCN(C)C [55. (HCl)n] | 3230 | > 100 | –
[2H]C([2H])([2H])N(CCN(C)c1cc(OC)c(Nc2nccc(N3CC(C)(C)c4ccccc43)n2)cc1NC(=O)C=C)C([2H])([2H])[2H] [57. (HCl)n] | – | 8.2 | 280
[2H]C([2H])([2H])N(CCN(C)c1cc(OC)c(Nc2nccc(-n3c(=O)n(C)c4ccccc43)n2)cc1NC(=O)C=C)C([2H])([2H])[2H] [58. (HCl)n] | – | 1.6 | 116
[2H]C([2H])([2H])N(CCN(C)c1cc(OC)c(Nc2nccc(-n3c(=O)[nH]c4ccccc43)n2)cc1NC(=O)C=C)C([2H])([2H])[2H] [61. (HCl)n] | – | 1.5 | 29
[2H]C([2H])([2H])N(CCN(C)c1cc(OC)c(Nc2nccc(N3CCc4ccccc43)n2)cc1NC(=O)C=C)C([2H])([2H])[2H] [62. (HCl)n] | – | 3.2 | 270
[2H]C([2H])([2H])N(CCN(C)c1cc(OC)c(Nc2nccc(-n3cc(C)c4ccccc43)n2)cc1NC(=O)C=C)C([2H])([2H])[2H] [63. (HCl)n] | – | 4.8 | 410
[2H]C([2H])([2H])N(CCN(C)c1cc(OC)c(Nc2nccc(-n3nnc4ccccc43)n2)cc1NC(=O)C=C)C([2H])([2H])[2H] [64. (HCl)n] | – | 6 | 310
[2H]C([2H])([2H])n1c(=O)n(-c2ccnc(Nc3cc(NC(=O)C=C)c(N(C)CCN(C)C)cc3OC)n2)c2ccccc21 [65. (MsOH)2] | – | 1.9 | 151
C=CC(=O)Nc1cc(Nc2nccc(-n3c(=O)n(CC)c4ccccc43)n2)c(OC)cc1N(C)CCN(C)C [66. (MsOH)3] | – | 3.6 | 201
[2H]C([2H])([2H])N(CCN(C)C)c1cc(OC)c(Nc2nccc(-n3c(=O)n(CC)c4ccccc43)n2)cc1NC(=O)C=C [68. (MsOH)2] | – | 0.4 | 43
[2H]C([2H])([2H])N(CCN(C)c1cc(OC)c(Nc2nccc(-n3c(=O)n(CC)c4ccccc43)n2)cc1NC(=O)C=C)C([2H])([2H])[2H] [69. (MsOH)3] | – | 0.8 | 63
[2H]C([2H])([2H])N(CCN(C)c1cc(OC)c(Nc2nccc(-c3cn(S(C)(=O)=O)c4ccccc34)n2)cc1NC(=O)C=C)C([2H])([2H])[2H] [70. (MsOH)2] | – | 0.5 | 46
C=CC(=O)Nc1cc(Nc2nccc(-c3cn(C)c4ccccc34)n2)c(OC)cc1N1CC(N2CCCC2)C1 [Example 23] | 2280 | 90.8 | –
C=CC(=O)Nc1cc(Nc2nccc(-c3cn(C)c4ccccc34)n2)c(OC)cc1OC1CN(C)C1 [Example 28] | 538 | > 100 | –
